Drawing on PubChem BioAssay (NCI), this text covers TGI for 14 compounds.

Among the test systems are SW-620 colon; NCI/ADR-RES ovarian; HS 578T breast; ACHN renal; SNB-19 CNS; SK-MEL-2 melanoma; DU-145 prostate; HCC-2998 colon; HCT-116 colon; SNB-75 CNS.
Experiment in all cases: NCI tumour cell line growth inhibition, 48 h

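Tested at 5 concentrations; 48 h exposure; 96-well plates; endpoints linearly interpolated, else capped at highest concentration. TGI is the concentration that stops growth completely.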 Bounds are passed on as bounds.

In the case of `Oc1ccc2ccccc2c1/C=C/c1ccc2c(Br)cc(Br)c(O)c2n1`, the TGI in the experiment on SW-620 colon was 25.1 µM; in the experiment with NCI/ADR-RES ovarian, 12.9 µM; in the experiment with HS 578T breast, 49.4 µM; with ACHN renal, 18.1 µM; with SNB-19 CNS, 25.1 µM; with SK-MEL-2 melanoma, 29.7 µM. The TGI in the experiment on DU-145 prostate stood at 25.7 µM; with HCC-2998 colon, 23.4 µM; in the experiment with HCT-116 colon, 11.4 µM; in the experiment on SNB-75 CNS, 30.8 µM.
With `COc1nc(C(=O)NNC(=O)c2nc(OC)c3ccccc3c2-c2ccccc2)c(-c2ccccc2)c2ccccc12`, the TGI in the experiment on SW-620 colon, with NCI/ADR-RES ovarian, in the experiment on HS 578T breast, with ACHN renal, in the experiment with SNB-19 CNS and with SK-MEL-2 melanoma was > 100 µM throughout. The TGI in the experiment with DU-145 prostate, in the experiment with HCC-2998 colon, with HCT-116 colon and in the experiment on SNB-75 CNS was > 100 µM in each case.
`C=CCNC1=C2C[C@@H](C)C[C@@H](OC)[C@H](OC(=O)CCCCN)[C@H](C)/C=C(\C)[C@@H](OC(N)=O)[C@H](OC)/C=C\C=C(/C)C(=O)NC(=CC1=O)C2=O`: the TGI is 55.1 µM in the experiment on SW-620 colon; > 100 µM with NCI/ADR-RES ovarian; 58.4 µM with HS 578T breast; 34 µM with ACHN renal; 23.8 µM with SNB-19 CNS; 9.98 µM in the experiment on SK-MEL-2 melanoma. In addition, the TGI in the experiment on DU-145 prostate was 18.5 µM; with HCC-2998 colon it was 13.6 µM; in the experiment on HCT-116 colon, 28 µM; in the experiment on SNB-75 CNS it was 15.2 µM.
Consider `CCOC(=O)C1(Cc2ccc3c(c2)CCC3)Cc2cc3c(cc2C1)CCC3`, for which the TGI in the experiment with SW-620 colon, in the experiment on NCI/ADR-RES ovarian, in the experiment on HS 578T breast, in the experiment with ACHN renal, in the experiment on SNB-19 CNS and in the experiment with SK-MEL-2 melanoma was > 100 µM each time. The TGI in the experiment with DU-145 prostate is > 100 µM; in the experiment on HCC-2998 colon, 64.4 µM; in the experiment with HCT-116 colon, > 100 µM; in the experiment on SNB-75 CNS, > 100 µM.
Regarding `CCc1nc(N)nc(N)c1-c1ccc2nn(-c3ccccc3)[n+]([O-])c2c1`, the TGI is 18.3 µM with SW-620 colon; 38.8 µM with NCI/ADR-RES ovarian; 52.3 µM in the experiment on HS 578T breast; 17.3 µM in the experiment on ACHN renal; > 70.4 µM in the experiment with SNB-19 CNS; 28.7 µM in the experiment with SK-MEL-2 melanoma. For the same compound, the TGI amounted to 20.1 µM in the experiment on DU-145 prostate, 20.5 µM in the experiment on HCC-2998 colon, 15.5 µM with HCT-116 colon and 53.1 µM in the experiment with SNB-75 CNS.
In the case of `CCC1(CC)SCc2nc3ccccc3n21`, the TGI is > 100 µM in the experiment on SW-620 colon; 86 µM with NCI/ADR-RES ovarian; 82.9 µM in the experiment with HS 578T breast; > 100 µM with ACHN renal; > 100 µM in the experiment with SNB-19 CNS; 85.3 µM in the experiment with SK-MEL-2 melanoma. In addition, the TGI in the experiment with DU-145 prostate is > 100 µM; in the experiment with HCC-2998 colon, > 100 µM; in the experiment with HCT-116 colon, 73.4 µM; in the experiment with SNB-75 CNS, 51.8 µM.
Turning to `CCn1c(-c2cc(OC)cc(OC)c2)nc2c1C(=O)c1ccccc1C2=O`, the TGI in the experiment with SW-620 colon, with NCI/ADR-RES ovarian, with HS 578T breast, in the experiment on ACHN renal, in the experiment on SNB-19 CNS and with DU-145 prostate was > 100 µM throughout. For the same compound, the TGI with HCC-2998 colon, in the experiment with HCT-116 colon and with SNB-75 CNS was > 100 µM in each case.
As to `CN(C)Cc1cc(C(=O)/C=C/c2ccc(Cl)cc2)cc(CN(C)C)c1O`, the TGI in the experiment on SW-620 colon stood at 20.5 µM; in the experiment with NCI/ADR-RES ovarian it was 54.2 µM; with HS 578T breast, 49.3 µM; in the experiment on ACHN renal, 16.1 µM; with SNB-19 CNS it was 24.1 µM; in the experiment on DU-145 prostate, 24.4 µM. The TGI was found to be 34.1 µM in the experiment on HCC-2998 colon, 26.5 µM in the experiment on HCT-116 colon and 44.4 µM in the experiment with SNB-75 CNS.
Take `COc1cc(-c2cc(=O)c3c(OC)c(OC)c(OC)c(OC)c3o2)c(OC)c(OC)c1OC`: the TGI in the experiment with SW-620 colon is > 100 µM; with NCI/ADR-RES ovarian, 66.8 µM; in the experiment on HS 578T breast it was > 100 µM; with ACHN renal, > 100 µM; in the experiment on SNB-19 CNS it was > 100 µM; in the experiment with SK-MEL-2 melanoma it was 49.4 µM. Besides, the TGI with DU-145 prostate, with HCC-2998 colon, in the experiment with HCT-116 colon and in the experiment with SNB-75 CNS was > 100 µM each time.
For the compound `CC[N+](CC)(CCNCC(N)=O)CC(N)=O`, the TGI in the experiment with SW-620 colon, with NCI/ADR-RES ovarian, in the experiment on HS 578T breast, in the experiment with ACHN renal, with SNB-19 CNS and with SK-MEL-2 melanoma was > 10 µM in each case. The TGI in the experiment with DU-145 prostate, in the experiment on HCC-2998 colon, with HCT-116 colon and with SNB-75 CNS was > 10 µM throughout.
As for `CC1=C(C#N)C(C#N)(C#N)C(NN(C)C)C1` (stereo not given), the TGI in the experiment on SW-620 colon was > 100 µM; with NCI/ADR-RES ovarian it was > 100 µM; in the experiment on HS 578T breast it was > 100 µM; with ACHN renal, 34.6 µM; in the experiment with SK-MEL-2 melanoma it was 39.5 µM; with DU-145 prostate, 33.8 µM. In addition, the TGI with HCC-2998 colon was determined as 32.1 µM; in the experiment with HCT-116 colon, 29.2 µM; in the experiment on SNB-75 CNS, 40.3 µM.
For `COc1ccc(C(=O)Sc2c(-c3ccccc3)c(=O)n(-c3ccccc3)c(=S)n2-c2ccccc2)cc1`, the TGI in the experiment with SW-620 colon, in the experiment on NCI/ADR-RES ovarian, in the experiment with HS 578T breast, in the experiment on ACHN renal, in the experiment on SNB-19 CNS and with DU-145 prostate was > 100 µM throughout. The TGI in the experiment on HCC-2998 colon, in the experiment on HCT-116 colon and in the experiment on SNB-75 CNS was > 100 µM in each case.
In the case of `Cc1cccc(-c2nc3ccc([N+](=O)[O-])cc3c(=O)o2)c1`, the TGI in the experiment on SW-620 colon is > 100 µM; in the experiment with NCI/ADR-RES ovarian it was > 100 µM; with HS 578T breast, 97.9 µM; in the experiment on ACHN renal it was > 100 µM; in the experiment with SK-MEL-2 melanoma, > 100 µM; with DU-145 prostate, > 100 µM. Besides, the TGI in the experiment on HCC-2998 colon, with HCT-116 colon and in the experiment on SNB-75 CNS was > 100 µM in each case.
For `CCN(CC)c1c(N(CC)CC)c(=O)c1=O`, the TGI in the experiment with SW-620 colon was 20.1 µM; with NCI/ADR-RES ovarian, 61.2 µM; in the experiment with HS 578T breast, 59.9 µM; in the experiment on ACHN renal, 21.1 µM; in the experiment with SNB-19 CNS, > 89.6 µM; in the experiment with SK-MEL-2 melanoma, 66.9 µM. For the same compound, the TGI is 23.3 µM in the experiment with DU-145 prostate, 39.9 µM with HCC-2998 colon, 20.8 µM with HCT-116 colon and 62.6 µM with SNB-75 CNS.
